Source: patent US6608082B1, “Treatment of erectile dysfunction using isoquinoline compound melanocortin receptor ligands” (Lion Bioscience AG, priority 1998, dated 2003)
Like-named read-outs stand apart in the source and are kept apart here. Each block holds one compound with its values, some of them ahead of it.

Assays:
MCR-1 = biological target: T1, MCR-1 (Homo sapiens, UniProt Q01726); test: Melanocortin receptor binding assay, competition with 125I-HP 467, HEK 293 cells expressing hMCR-1; conditions: read-out: MC-1 IC50
T1 construct: expressed in transfected cells; host or cells: HEK 293
Procedure, shortened: (§1)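 Test compounds compete on intact HEK 293 cells carrying hMCR-1 (2×10^4 per tube) or hMCR-4 (4×10^3 per tube), suspended in PBS, 10% calf serum, 1 mM CaCl2.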

MCR-4 = biological target: T2, MCR-4 (Homo sapiens, UniProt P32245); test: Melanocortin receptor binding assay, competition with 125I-HP 467, HEK 293 cells expressing hMCR-4; conditions: read-out: MC-4 IC50
T2 construct: expressed in transfected cells; host or cells: HEK 293
Procedure, shortened: as §1

[1] = inhibition of binding of 125I-HP 467, HEK 293 cells expressing MCR-1
[2] = inhibition of binding of 125I-HP 467, HEK 293 cells expressing MCR-4
[3] = TRG 2406 and TRG 2407 libraries, inhibition of binding of 125I-HP 467
[4] = inhibition of binding of 125I-HP 467, HEK 293 cells expressing MCR-1, TRG 2414 library
[5] = inhibition of binding of 125I-HP 467, HEK 293 cells expressing MCR-4, TRG 2414 library
[6] = TRG 2408 and TRG 2409 libraries, inhibition of 125I-HP 467 binding
[7] = competition with 125I-HP 467, HEK 293 cells expressing MCR-1
[8] = competition with 125I-HP 467, HEK 293 cells expressing MCR-4

T2 sequence (P32245 whole entry): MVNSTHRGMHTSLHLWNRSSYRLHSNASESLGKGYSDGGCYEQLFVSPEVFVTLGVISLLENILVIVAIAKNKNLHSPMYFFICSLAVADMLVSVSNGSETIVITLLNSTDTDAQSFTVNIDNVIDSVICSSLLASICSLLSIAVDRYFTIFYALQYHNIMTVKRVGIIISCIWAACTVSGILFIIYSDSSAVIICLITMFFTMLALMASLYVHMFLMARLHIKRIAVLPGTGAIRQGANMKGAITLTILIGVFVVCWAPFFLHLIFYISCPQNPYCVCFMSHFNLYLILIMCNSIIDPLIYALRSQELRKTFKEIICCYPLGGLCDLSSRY
T1 sequence (Q01726 whole entry): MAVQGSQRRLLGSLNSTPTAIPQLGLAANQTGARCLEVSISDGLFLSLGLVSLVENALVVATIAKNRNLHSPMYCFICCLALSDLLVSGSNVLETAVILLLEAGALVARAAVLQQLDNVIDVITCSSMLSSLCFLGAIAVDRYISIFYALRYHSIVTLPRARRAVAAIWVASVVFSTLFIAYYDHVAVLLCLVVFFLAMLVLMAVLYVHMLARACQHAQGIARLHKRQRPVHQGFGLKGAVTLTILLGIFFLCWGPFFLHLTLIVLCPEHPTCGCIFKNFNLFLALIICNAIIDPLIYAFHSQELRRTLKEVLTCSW

IC50 (MCR-1; [1]): 0.22 µM | IC50 (MCR-4; [2]): 5.18 µM
Structure (SMILES): CCNc1ccc(C2C(CN)c3ccccc3CN2CCCC[C@@H](CN)NCCCCOc2ccccc2)cc1 (some centres unmarked) [2424#8]

IC50 (MCR-1; [4]): 10.4 µM | IC50 (MCR-4; [5]): 4.99 µM
Structure (SMILES): NCC(CCCCN1Cc2ccccc2C(CNC2CCCCC2)C1c1cc(C(F)(F)F)cc(C(F)(F)F)c1)NCc1ccccc1 (centres unmarked) [TRG 2414-79]

IC50 (MCR-1; [4]): 1.09 µM | IC50 (MCR-4; [5]): 4.95 µM
Structure (SMILES): CCCOc1ccc(C2C(CNCc3ccc(OC)cc3)c3ccccc3CN2CCCCC(CN)NCc2ccccc2)cc1 (centres unmarked) [TRG 2414-183]

IC50 (MCR-1; [4]): 0.033 µM | IC50 (MCR-4; [5]): 5.21 µM
Structure (SMILES): COc1ccc(CCNCC2c3ccccc3CN(CCCCC(CN)NCc3ccccc3)C2c2cc(C(F)(F)F)cc(C(F)(F)F)c2)cc1 (centres unmarked) [TRG 2414-67]

IC50 (MCR-1; [3]): 5.31 µM | IC50 (MCR-4; [3]): 6.17 µM
Structure (SMILES): CNC(CN)CCCCN1Cc2ccccc2C(CN(C)Cc2ccccc2)C1c1ccc(Cl)cc1Cl (centres unmarked) [TRG 2407-11]

IC50 (MCR-1; [7]): 0.13 µM | IC50 (MCR-4; [8]): 1.27 µM
Structure (SMILES): NCC(CCCCN1Cc2ccccc2C(CNCCc2ccccc2)C1c1ccc(-c2ccccc2)cc1)N1CCCC1 (centres unmarked) [TRG 2411-9]

IC50 (MCR-1; [3]): 5.57 µM | IC50 (MCR-4; [3]): 10.7 µM
Structure (SMILES): CNC(CN)CCCCN1Cc2ccccc2C(CNc2ccccc2)C1c1ccc(Cl)cc1Cl (mixture of isomers) [TRG 2407-1]

IC50 (MCR-1; [7]): 0.32 µM | IC50 (MCR-4; [8]): 1.56 µM
Structure (SMILES): CCNc1ccc(C2C(CNCCc3ccccc3)c3ccccc3CN2CCCC[C@@H](CN)NCCc2ccc(OC)cc2)cc1 (some centres unmarked) [TRG 2411-42]

IC50 (MCR-1; TRG 2414 library, inhibition of binding of 125I-HP 467, HEK 293 cells expressing MCR-1): 7.59 µM | IC50 (MCR-4; TRG 2414 library, inhibition of binding of 125I-HP 467, HEK 293 cells expressing MCR-4): 16.8 µM
Structure (SMILES): CCCOc1ccc(C2C(CNC3CCCCC3)c3ccccc3CN2CCCCC(CN)NCC(C)c2ccc(CC(C)C)cc2)cc1 (centres unmarked) [Cmpd 200]

IC50 (MCR-1; [4]): 8.96 µM | IC50 (MCR-4; [5]): 4.83 µM
Structure (SMILES): NCC(CCCCN1Cc2ccccc2C(CNC2CCCCCC2)C1c1cccc(Oc2ccccc2)c1)NCCc1ccccc1 (centres unmarked) [TRG 2414-114]

IC50 (MCR-1; [3]): 1.72 µM | IC50 (MCR-4; [3]): 3.78 µM
Structure (SMILES): CNC(CN)CCCCN1Cc2ccccc2C(CNCc2ccccc2O)C1c1cccc(Oc2ccc(Cl)c(Cl)c2)c1 (mixture of isomers) [TRG 2406-4]

IC50 (MCR-1; [3]): 1.63 µM | IC50 (MCR-4; [3]): 16.4 µM
Structure (SMILES): CCNc1ccc(C2C(CNc3cccc(OCC)c3)c3ccccc3CN2CCCCC(CN)NC)cc1 (centres unmarked) [TRG 2407-46]

IC50 (MCR-1; [4]): 2.35 µM | IC50 (MCR-4; [5]): 14 µM
Structure (SMILES): COc1ccc(CNCC2c3ccccc3CN(CCCCC(CN)NCc3ccccc3)C2c2ccc(Oc3ccccc3)cc2)cc1 (centres unmarked) [TRG 2414-143]

Continued, compound first:

Structure (SMILES): CNC(CN)CCCCN1Cc2ccccc2C(CNCC2CCCCC2)C1c1ccc(Cl)cc1Cl (mixture of isomers) [TRG 2407-31]
IC50 (MCR-1; [3]): 1.11 µM | IC50 (MCR-4; [3]): 1.02 µM

Structure (SMILES): COc1cccc(CCNCC2c3ccccc3CN(CCCCC(CN)NCc3ccc(C)cc3)C2c2cc(C(F)(F)F)cc(C(F)(F)F)c2)c1 (centres unmarked) [TRG 2421-37]
IC50 (MCR-1; [1]): 3.08 µM | IC50 (MCR-4; [2]): 0.84 µM

Structure (SMILES): CCCOc1ccc(C2C(CNCc3ccc(OC)cc3)c3ccccc3CN2CCCCC(CN)NCC(C)c2ccc(CC(C)C)cc2)cc1 (centres unmarked) [TRG 2414-184]
IC50 (MCR-1; [4]): 17 µM | IC50 (MCR-4; [5]): 27.9 µM

Structure (SMILES): NCC(N)CCCCN1Cc2ccccc2C(CNC2CCCCCC2)C1c1cc(C(F)(F)F)cc(C(F)(F)F)c1 (centres unmarked) [TRG 2414-73]
IC50 (MCR-1; [4]): 5.77 µM | IC50 (MCR-4; [5]): 1.01 µM

Structure (SMILES): NC[C@H](N)CCCCN1Cc2ccccc2C(CNC2CCCCC2)C1c1ccc(Cl)cc1Cl (some centres unmarked) [TRG 2408-41]
IC50 (MCR-1; [6]): 1.03 µM | IC50 (MCR-4; [6]): 3.88 µM

Structure (SMILES): CCCCOc1ccc(C2C(CN)c3ccccc3CN2CCCCC(CN)NCC)cc1 (mixture of isomers) [TRG 2415-18]
IC50 (MCR-1; [1]): 0.306 µM | IC50 (MCR-4; [2]): 7.95 µM

Structure (SMILES): NCC(CCCCN1Cc2ccccc2C(CNCCc2ccccc2)C1c1cc(C(F)(F)F)cc(C(F)(F)F)c1)NCc1ccc(Br)cc1 (centres unmarked) [TRG 2421-3]
IC50 (MCR-1; [1]): 4.91 µM | IC50 (MCR-4; [2]): 9.64 µM

Structure (SMILES): CCCCNc1ccc(C2C(CN)c3ccccc3CN2CCCC(CN)NCCCC)cc1 (centres unmarked) [TRG 2411-219]
IC50 (MCR-1; [1]): 0.1 µM | IC50 (MCR-4; [2]): 2.97 µM

Structure (SMILES): CCNc1ccc(C2C(CNC3CCCCC3)c3ccccc3CN2CCCC(CN)NCCN)cc1 (centres unmarked) [TRG 2408-63]
IC50 (MCR-1; [6]): 0.69 µM | IC50 (MCR-4; [6]): 18.7 µM

Structure (SMILES): CCNc1ccc(C2C(CN)c3ccccc3CN2CCCC(CN)NCCCCNCCc2ccccc2)cc1 (centres unmarked) [TRG 2419-12]
IC50 (MCR-1; [1]): 0.073 µM | IC50 (MCR-4; [2]): 16.7 µM

Structure (SMILES): COc1cccc(CNCC2c3ccccc3CN(CCCCC(N)CN)C2c2ccc(Cl)cc2Cl)c1 (centres unmarked) [TRG 2414-17]
IC50 (MCR-1; [4]): 3.08 µM | IC50 (MCR-4; [5]): 1.63 µM

Structure (SMILES): Cc1ccc(CNC(CN)CCCCN2Cc3ccccc3C(CNCCc3ccc(Cl)cc3)C2c2cc(C(F)(F)F)cc(C(F)(F)F)c2)cc1 (centres unmarked) [TRG 2421-32]
IC50 (MCR-1; [1]): 5.77 µM | IC50 (MCR-4; [2]): 4.15 µM
